Laboratory results as given in publication PMC9934367, “Functional impact of subunit composition and compensation on Drosophila melanogaster nicotinic receptors–targets of neonicotinoids” (PLOS Genetics, 2023).
Like-named read-outs stand apart in the source and are kept apart here.

How the values were obtained:
[1] = molecular target: Dα1/Dα3/Dα4/Dβ1/Dβ2 nAChR; conditions: mean ± standard error (n = 5); for Imax: normalised to maximum ACh response
Protocol: (§1) cDNAs of the nAChR subunits and co-factors were cloned into pcDNA3.1 (+) vector (Thermo Fisher Scientific). The accession numbers of the nAChR subunits and cofactors are as follows: Dα1 (NP_524481), Dα2 (NP_524482), Dα3 (NP_525079), Dα4 (CAB77445), Dβ1 (NP_523927), Dβ2 (NP_524483), Dβ3 (NP_525098), DmRIC-3 (CAP16647), DmUNC-50 (NP_649813), and DmTMX3 (NP_648847). cRNAs were prepared using the mMESSAGE mMACHINE T7 ULTRA Transcription Kit (Thermo Fisher Scientific, #AM1345) according to the manual with the cDNA template which was cut with appropriate restriction enzymes at the 3’ end of the cDNA.
(§2) We minimised the use of X. laevis according to the UK Animals (Scientific Procedures) Act, 1986. […] Oocytes were defolliculated after collagenase treatment in Ca^2+-free standard oocyte saline (Ca^2+-free SOS). cRNAs of the nAChR subunits and co-factors mixed at a concentration of 0.1 mg/mL was injected into oocytes at a volume of 50 nL. Then the oocytes were incubated in the incubation medium (SOS supplemented with sodium pyruvate (Nacalai Tesque, #13058–12), penicillin-streptomycin (MilliporeSigma, #P4333), gentamycin (Nacalai Tesque, #16672–04), and 4% horse serum (Thermo Fisher Scientific, #26050–070) for 3−4 days prior to electrophysiology.
(§3) Each defolliculated X. laevis oocyte was secured in a Perspex recording chamber and perfused with the standard oocyte saline (SOS) containing 0.5 μM atropine (SOSA) at a flow rate of 7−10 mL/min [48]. Two glass electrodes filled with 2 M KCl were impaled into each oocyte and the membrane potential was clamped at -100 mV. […] The peak amplitude of the response was measured and analysed by pCLAMP (Molecular Devices, USA).
(§4) Y=Imax/1+10^(logEC50‐X)nH
(§5) Where Y is the normalised response, X is log[ligand (M)], EC50 is the half maximal concentration (M), Imax is the maximum normalised response and nH is the Hill coefficient.

[2] = molecular target: Dα1/Dα2/Dα4/Dβ1/Dβ2 nAChR; conditions: mean ± standard error (n = 5); for Imax: normalised to maximum ACh response
Protocol: as §1, §2, §3, §4, §5

[3] = molecular target: Dα2/Dα3/Dα4/Dβ1/Dβ2 nAChR; conditions: mean ± standard error (n = 5); for Imax: normalised to maximum ACh response
Protocol: as §1, §2, §3, §4, §5

Dα2/Dα3/Dβ1/Dβ2 nAChR = molecular target: T1, Dα2/Dα3/Dβ1/Dβ2 nAChR (Drosophila melanogaster, UniProt P04755+P17644+P25162+Q9W3G6); test: Voltage-clamp electrophysiology, nAChR expressed in X. laevis oocytes; type: cell-based, D. melanogaster; conditions: mean ± standard error (n = 5)
T1 construct: Dα2 (NP_524482); Dβ1 (NP_523927); Dβ2 (NP_524483); expressed in transfected cells; host or cells: Xenopus laevis oocytes (cRNA injection)
Protocol: as §1, §2, §3, §4, §5

Dα2/Dα3/Dβ1 nAChR = molecular target: T2, Dα2/Dα3/Dβ1 nAChR (Drosophila melanogaster, UniProt P04755+P17644+Q9W3G6); test: as above; type: cell-based, D. melanogaster; conditions: Dα2/Dα3/Dβ1 nAChR, mean ± standard error (n = 5)
T2 construct: Dα2 (NP_524482); Dβ1 (NP_523927); expressed in transfected cells; host or cells: Xenopus laevis oocytes (cRNA injection)
Protocol: as §1, §2, §3, §4, §5

Dα1/Dβ1/Dβ2 nAChR = molecular target: T3, Dα1/Dβ1/Dβ2 nAChR (Drosophila melanogaster, UniProt P04755+P09478+P25162); test: as above; type: cell-based, D. melanogaster
T3 construct: Dα1 (NP_524481); Dβ1 (NP_523927); Dβ2 (NP_524483); expressed in transfected cells; host or cells: Xenopus laevis oocytes (cRNA injection)
Protocol: as §1, §2, §3, §4, §5

Dα1/Dα2/Dβ1/Dβ2 nAChR = molecular target: T4, Dα1/Dα2/Dβ1/Dβ2 nAChR (Drosophila melanogaster, UniProt P04755+P09478+P17644+P25162); test: as above; type: cell-based, D. melanogaster; conditions: mean ± standard error (n = 5)
T4 construct: Dα1 (NP_524481); Dα2 (NP_524482); Dβ1 (NP_523927); Dβ2 (NP_524483); expressed in transfected cells; host or cells: Xenopus laevis oocytes (cRNA injection)
Protocol: as §1, §2, §3, §4, §5

[4] = molecular target: T5, Dα1/Dα3/Dβ1/Dβ2/Dβ3 nAChR; test: as above; type: cell-based, D. melanogaster; conditions: mean ± standard error (n = 5); for Imax: normalised to maximum ACh response
T5 construct: Dα1 (NP_524481); Dβ1 (NP_523927); Dβ2 (NP_524483); expressed in transfected cells; host or cells: Xenopus laevis oocytes (cRNA injection)
Protocol: as §1, §2, §3, §4, §5

Dα1/Dβ1 nAChR = molecular target: T6, Dα1/Dβ1 nAChR (Drosophila melanogaster, UniProt P04755+P09478); test: as above; type: cell-based, D. melanogaster; conditions: mean ± standard error (n = 5)
T6 construct: Dα1 (NP_524481); Dβ1 (NP_523927); expressed in transfected cells; host or cells: Xenopus laevis oocytes (cRNA injection)
Protocol: as §1, §2, §3, §4, §5

[5] = tested on: T7, Dα1/Dα2/Dα3/Dβ1/Dβ2 nAChR; test: as above; type: cell-based, D. melanogaster; conditions: mean ± standard error (n = 5)
T7 construct: Dα1 (NP_524481); Dα2 (NP_524482); Dβ1 (NP_523927); Dβ2 (NP_524483); expressed in transfected cells; host or cells: Xenopus laevis oocytes (cRNA injection)
Protocol: as §1, §2, §3, §4, §5

Dα1/Dα2/Dβ1 nAChR = molecular target: T8, Dα1/Dα2/Dβ1 nAChR (Drosophila melanogaster, UniProt P04755+P09478+P17644); test: as above; type: cell-based, D. melanogaster
T8 construct: Dα1 (NP_524481); Dα2 (NP_524482); Dβ1 (NP_523927); expressed in transfected cells; host or cells: Xenopus laevis oocytes (cRNA injection)
Protocol: as §1, §2, §3, §4, §5

[6] = molecular target: T9, Dα2/Dα3/Dβ1/Dβ2/Dβ3 nAChR; test: as above; type: cell-based, D. melanogaster; conditions: mean ± standard error (n = 5); for Imax: normalised to maximum ACh response
T9 construct: Dα2 (NP_524482); Dβ1 (NP_523927); Dβ2 (NP_524483); expressed in transfected cells; host or cells: Xenopus laevis oocytes (cRNA injection)
Protocol: as §1, §2, §3, §4, §5

Dα3/Dβ1/Dβ2 nAChR = molecular target: T10, Dα3/Dβ1/Dβ2 nAChR (Drosophila melanogaster, UniProt P04755+P25162+Q9W3G6); test: as above; type: cell-based, D. melanogaster; conditions: Dα3/Dβ1/Dβ2 nAChR
T10 construct: Dβ1 (NP_523927); Dβ2 (NP_524483); expressed in transfected cells; host or cells: Xenopus laevis oocytes (cRNA injection)
Protocol: as §1, §2, §3, §4, §5

[7] = molecular target: T11, Dα1/Dα2/Dβ1/Dβ2/Dβ3 nAChR; test: as above; type: cell-based, D. melanogaster; conditions: mean ± standard error (n = 5); for Imax: normalised to maximum ACh response
T11 construct: Dα1 (NP_524481); Dα2 (NP_524482); Dβ1 (NP_523927); Dβ2 (NP_524483); expressed in transfected cells; host or cells: Xenopus laevis oocytes (cRNA injection)
Protocol: as §1, §2, §3, §4, §5

[8] = normalised to maximum ACh response
[9] = efficacy, mean ± standard error (n = 5)
[10] = mean ± standard error (n = 5), read-out: pEC50 (converted)
[11] = normalised to maximum ACh response, mean ± standard error (n = 5)

| SMILES | pEC50 [1] | Imax [1] | pEC50 [2] | Imax [2] | pEC50 [3] | Imax [3] | Imax (Dα2/Dα3/Dβ1/Dβ2 nAChR; efficacy) | EC50 (Dα2/Dα3/Dβ1/Dβ2 nAChR) [nM] | Imax (Dα2/Dα3/Dβ1/Dβ2 nAChR; [8]) | EC50 (Dα2/Dα3/Dβ1 nAChR) [nM] | Imax (Dα2/Dα3/Dβ1 nAChR; [8]) | Imax (Dα2/Dα3/Dβ1 nAChR; efficacy) | Imax (Dα1/Dβ1/Dβ2 nAChR; [9]) | Imax (Dα1/Dβ1/Dβ2 nAChR; [11]) | Imax (Dα1/Dα2/Dβ1/Dβ2 nAChR; efficacy) | EC50 (Dα1/Dα2/Dβ1/Dβ2 nAChR) [nM] | Imax (Dα1/Dβ1 nAChR; efficacy) | Imax ([5]; efficacy) | Imax (Dα1/Dα2/Dβ1 nAChR; [9]) | Imax (Dα3/Dβ1/Dβ2 nAChR; [9]) | also measured |
| --- | --- | --- | --- | --- | --- | --- | --- | --- | --- | --- | --- | --- | --- | --- | --- | --- | --- | --- | --- | --- | --- |
| N#C/N=C1\SCCN1Cc1ccc(Cl)nc1 [Thiacloprid, thiacloprid] | 7.96 ± 0.10 | 0.026 ± 0.001 | 7.01 ± 0.19 | 0.066 ± 0.007 | 7.99 ± 0.20 | 0.018 ± 0.002 | 0.017 | 8.32 | 0.017 ± 0.002 | 120 | 0.045 ± 0.006 | 0.045 | 0.043 | 0.043 ± 0.002 | 0.074 | 79.4 | 0.091 | 0.059 | 0.025 | 0.022 | Imax ([3]; listed as thiacloprid): 0.018; EC50 (Dα1/Dβ1/Dβ2 nAChR; [10]): 13.8 nM; Imax (Dα1/Dα2/Dβ1/Dβ2 nAChR; [8]): 0.074 ± 0.014; pEC50 [4]: 8.63 ± 0.23; Imax [4]: 0.089 ± 0.009; EC50 (Dα1/Dβ1 nAChR): 16.2 nM; Imax (Dα1/Dβ1 nAChR; [8]): 0.091 ± 0.009; pEC50 [5]: 7.18 ± 0.17; Imax [5, 8]: 0.059 ± 0.006; Imax ([5]; normalised to maximum ACh response, listed as thiacloprid): 0.059; Imax (Dα1/Dα2/Dβ1 nAChR; [11]): 0.025 ± 0.001; EC50 (Dα1/Dα2/Dβ1 nAChR; read-out: EC50): 120 nM; pEC50 [6]: 8.31 ± 0.17; Imax [6]: 0.010 ± 0.001; Imax ([6]; listed as thiacloprid): 0.010; EC50 (Dα3/Dβ1/Dβ2 nAChR; [10]): 4.79 nM; Imax (Dα3/Dβ1/Dβ2 nAChR; [11]): 0.022 ± 0.003; pEC50 [7]: 7.71 ± 0.43; Imax [7]: 0.023 ± 0.004; Imax ([7]; listed as thiacloprid): 0.023 |
| O=[N+]([O-])NC1=NCCN1Cc1ccc(Cl)nc1 [Imidacloprid, imidacloprid] | 7.30 ± 0.17 | 0.101 ± 0.008 | 6.48 ± 0.28 | 0.172 ± 0.020 | 7.40 ± 0.20 | 0.027 ± 0.002 | 0.125 | 100 | 0.125 ± 0.018 | 132 | 0.101 ± 0.016 | 0.101 | 0.076 | 0.076 ± 0.006 | 0.165 | 355 | 0.122 | 0.142 | 0.031 | 0.039 | Imax ([3]; listed as imidacloprid): 0.027; EC50 (Dα1/Dβ1/Dβ2 nAChR; read-out: EC50): 102 nM; Imax (Dα1/Dα2/Dβ1/Dβ2 nAChR; [8]): 0.165 ± 0.016; pEC50 [4]: 7.72 ± 0.11; Imax [4]: 0.140 ± 0.008; EC50 (Dα1/Dβ1 nAChR): 69.2 nM; Imax (Dα1/Dβ1 nAChR; [8]): 0.122 ± 0.007; pEC50 [5]: 6.47 ± 0.14; Imax [5, 8]: 0.142 ± 0.011; Imax ([5]; normalised to maximum ACh response, listed as imidacloprid): 0.142; EC50 (Dα1/Dα2/Dβ1 nAChR; [10]): 195 nM; Imax (Dα1/Dα2/Dβ1 nAChR; [11]): 0.031 ± 0.002; pEC50 [6]: 7.75 ± 0.31; Imax [6]: 0.021 ± 0.003; Imax ([6]; listed as imidacloprid): 0.021; Imax (Dα3/Dβ1/Dβ2 nAChR; [11]): 0.039 ± 0.002; EC50 (Dα3/Dβ1/Dβ2 nAChR; read-out: EC50): 5.25 nM; pEC50 [7]: 6.27 ± 0.21; Imax [7]: 0.080 ± 0.007; Imax ([7]; listed as imidacloprid): 0.080 |
| CC(=O)OCC[N+](C)(C)C [ACh, acetylcholine] | – | – | – | – | – | – | 1 | – | – | – | – | 1 | 1 | – | 1 | – | 1 | 1 | 1 | 1 | – |
